From US11840686B2, “Modulation of prekallikrein (PKK) expression” (Ionis Pharmaceuticals, Inc., priority 2013, dated 2023)
Strand notation (5' to 3'): a small letter for the sugar, then the base; units joined by * are phosphorothioate-linked, units joined directly phosphodiester-linked; [ ] holds rarer units or linkages, { } end groups; capitals alone tell only the bases. e = 2'-O-(2-methoxyethyl) (MOE); [5mC] = 5-methylcytosine; d = 2'-deoxy (DNA)

test system: human PKK mRNA; assay: Antisense inhibition of human PKK mRNA in HepaRG cells, 5,000 nM (Example 2); assay type: cell-based; details: HepaRG cells, 5,000 nM antisense oligonucleotide; 5-10-5 gapmers; Table 16
Summary of the method: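 Percent inhibition of PKK mRNA is reported relative to untreated cells, after adjustment for total RNA by RIBOGREEN. Gapmers of 16–20 nucleosides with 2′-MOE wings were delivered at 5,000 nM by electroporation into HepaRG cells and left for roughly 24 hours before RNA isolation.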

Row | Substance | % inhibition
1 | 547687 (antisense eA*e[5mC]*eT*eG*eT*d[5mC]*d[5mC]*dT*dA*dT*dA*dA*d[5mC]*dT*dA*eT*eA*eT*e[5mC]*eA) [compound 547687] | 41%
2 | 547688 (antisense e[5mC]*eA*e[5mC]*eT*eG*dT*d[5mC]*d[5mC]*dT*dA*dT*dA*dA*d[5mC]*dT*eA*eT*eA*eT*e[5mC]) [compound 547688] | 47%
3 | 547689 (antisense eG*eT*eA*eA*e[5mC]*dA*dA*dT*dA*dT*d[5mC]*dA*d[5mC]*dT*dG*eT*e[5mC]*e[5mC]*eT*eA) [compound 547689] | 73%
4 | 547690 (antisense e[5mC]*eT*eG*eT*eA*dA*d[5mC]*dA*dA*dT*dA*dT*d[5mC]*dA*d[5mC]*eT*eG*eT*e[5mC]*e[5mC]) [compound 547690] | 76%
5 | 547691 (antisense eA*e[5mC]*eT*eG*eT*dA*dA*d[5mC]*dA*dA*dT*dA*dT*d[5mC]*dA*e[5mC]*eT*eG*eT*e[5mC]) [compound 547691] | 36%
6 | 547692 (antisense e[5mC]*eA*e[5mC]*eT*eG*dT*dA*d[5mC]*d[5mC]*dT*dA*dT*dA*dA*d[5mC]*eT*eG*eT*eA*eA) [compound 547692] | 47%
7 | 547693 (antisense eT*e[5mC]*eA*e[5mC]*eT*dG*dT*dA*d[5mC]*d[5mC]*dT*dA*dT*dA*dA*e[5mC]*eT*eG*eT*eA) [compound 547693] | 61%
8 | 547695 (antisense eA*e[5mC]*eT*eG*eT*d[5mC]*d[5mC]*dT*dA*dT*dA*dA*d[5mC]*dT*dA*eT*eT*eA*e[5mC]*eA) [compound 547695] | 31%
9 | 547696 (antisense e[5mC]*eA*e[5mC]*eT*eG*dT*d[5mC]*d[5mC]*dT*dA*dT*dA*dA*d[5mC]*dT*eA*eT*eT*eA*e[5mC]) [compound 547696] | 26%
10 | 547697 (antisense eT*e[5mC]*eA*e[5mC]*eT*dG*dT*d[5mC]*d[5mC]*dT*dA*dT*dA*dA*d[5mC]*eT*eA*eT*eT*eA) [compound 547697] | 63%
11 | 547698 (antisense eA*e[5mC]*e[5mC]*eT*eA*dT*dA*dA*d[5mC]*dT*dA*dT*dA*dA*d[5mC]*eA*eA*eT*eA*eT) [compound 547698] | 0%
12 | 547699 (antisense eT*eA*e[5mC]*e[5mC]*eT*dA*dT*dA*dA*d[5mC]*dT*dA*dT*dA*dA*e[5mC]*eA*eA*eT*eA) [compound 547699] | 10%
13 | 547700 (antisense eG*eT*eA*e[5mC]*e[5mC]*dT*dA*dT*dA*dA*d[5mC]*dT*dA*dT*dA*eA*e[5mC]*eA*eA*eT) [compound 547700] | 0%
14 | 547701 (antisense e[5mC]*eA*eT*e[5mC]*eA*d[5mC]*dT*dG*dT*dA*d[5mC]*d[5mC]*dT*dA*dT*eA*eA*e[5mC]*eT*eA) [compound 547701] | 49%
15 | 547702 (antisense eA*e[5mC]*eA*eT*e[5mC]*dA*d[5mC]*dT*dG*dT*dA*d[5mC]*d[5mC]*dT*dA*eT*eA*eA*e[5mC]*eT) [compound 547702] | 44%
16 | 547703 (antisense e[5mC]*eA*eA*e[5mC]*eA*dT*d[5mC]*dA*d[5mC]*dT*dG*dT*dA*d[5mC]*d[5mC]*eT*eA*eT*eA*eA) [compound 547703] | 25%

Row | Substance | % inhibition
17 | 547704 (antisense eA*e[5mC]*eA*eT*e[5mC]*dT*dT*dG*dT*d[5mC]*dA*dT*dT*dA*dA*e[5mC]*eA*eT*e[5mC]*e[5mC]) [compound 547704] | 61%
18 | 547705 (antisense eG*e[5mC]*eA*e[5mC]*e[5mC]*d[5mC]*dA*dA*dT*dA*d[5mC]*dA*dG*dG*dG*e[5mC]*e[5mC]*eA*eG*eG) [compound 547705] | 69%
19 | 547706 (antisense eT*eG*e[5mC]*e[5mC]*eT*d[5mC]*d[5mC]*dT*dG*dG*d[5mC]*dA*dG*d[5mC]*d[5mC]*eT*eT*e[5mC]*eA*eA) [compound 547706] | 73%
20 | 547707 (antisense eT*eG*eA*eA*eA*dA*dG*d[5mC]*d[5mC]*dA*d[5mC]*dG*d[5mC]*d[5mC]*d[5mC]*eT*eT*eA*eG*e[5mC]) [compound 547707] | 32%
21 | 547708 (antisense eG*e[5mC]*e[5mC]*eA*eG*dG*dA*dG*dA*d[5mC]*dA*dG*d[5mC]*d[5mC]*d[5mC]*eT*eA*e[5mC]*eT*e[5mC]) [compound 547708] | 67%
22 | 547709 (antisense eA*eG*e[5mC]*e[5mC]*e[5mC]*dA*dA*dT*dG*dT*d[5mC]*d[5mC]*dT*dA*dA*e[5mC]*e[5mC]*eT*eG*eT) [compound 547709] | 76%
23 | 547710 (antisense eT*eG*e[5mC]*eG*eG*dT*dT*dA*dT*dA*dT*dG*dG*dG*d[5mC]*eT*eG*eA*eA*eG) [compound 547710] | 85%
24 | 547711 (antisense e[5mC]*e[5mC]*eT*eT*eT*dA*dG*d[5mC]*d[5mC]*dA*d[5mC]*dT*d[5mC]*d[5mC]*dT*e[5mC]*eT*eT*eG*e[5mC]) [compound 547711] | 45%
25 | 547713 (antisense e[5mC]*eT*e[5mC]*eA*eA*dT*dG*d[5mC]*d[5mC]*dA*d[5mC]*d[5mC]*d[5mC]*dT*dT*eT*e[5mC]*e[5mC]*e[5mC]*e[5mC]) [compound 547713] | 37%
26 | 547714 (antisense e[5mC]*eT*eG*eT*e[5mC]*dT*dA*dA*d[5mC]*dT*dG*dG*d[5mC]*d[5mC]*dT*eG*eG*e[5mC]*eT*eG) [compound 547714] | 19%
27 | 547715 (eG*eG*eT*e[5mC]*eA*dG*dA*dA*dG*dG*d[5mC]*d[5mC]*dT*d[5mC]*dT*eT*eA*eT*eT*e[5mC]; antisense) [compound 547715] | 21%
28 | 547716 (e[5mC]*e[5mC]*eA*eT*e[5mC]*dT*dG*dT*d[5mC]*d[5mC]*d[5mC]*d[5mC]*dT*d[5mC]*dA*eA*eT*e[5mC]*e[5mC]*e[5mC]; antisense) [compound 547716] | 9%
29 | 547717 (eA*e[5mC]*eT*e[5mC]*eT*dG*dG*d[5mC]*dA*d[5mC]*dT*dG*dG*dT*d[5mC]*eA*eT*eG*eG*eA; antisense) [compound 547717] | 54%
30 | 547719 (eT*eA*e[5mC]*e[5mC]*eA*dA*dG*d[5mC]*dT*dT*dG*dT*dA*dG*dA*eA*eG*eG*eG*eA; antisense) [compound 547719] | 69%
31 | 547720 (eG*eA*eA*eA*eG*dA*d[5mC]*dG*dG*d[5mC]*d[5mC]*dA*dA*dT*dG*eG*eG*eA*eA*eA; antisense) [compound 547720] | 8%
32 | 547721 (e[5mC]*eT*e[5mC]*eT*eA*dT*d[5mC]*dA*dA*dA*dA*dT*d[5mC]*d[5mC]*dT*eG*e[5mC]*eT*eG*e[5mC]; antisense) [compound 547721] | 68%

same assay, conditions: HepaRG cells, 5,000 nM antisense oligonucleotide; 5-10-5 gapmers; Table 17

Row | Substance | % inhibition
33 | 547723 (eT*eA*eG*eA*eA*dT*dG*dG*d[5mC]*dA*dG*dG*dG*dT*dT*e[5mC]*eT*eG*eT*eG; antisense) [compound 547723] | 53%
34 | 547724 (eG*eA*eT*eG*e[5mC]*dA*dT*d[5mC]*d[5mC]*dA*dA*d[5mC]*dA*d[5mC]*dT*eT*eA*e[5mC]*e[5mC]*e[5mC]; antisense) [compound 547724] | 16%
35 | 547725 (eA*eT*eT*eG*eG*dT*dG*dG*dT*dG*dG*dG*dA*dT*dT*eG*eG*eT*eG*eG; antisense) [compound 547725] | 26%
36 | 547726 (eG*e[5mC]*eA*eG*eG*dA*dT*dT*dG*dG*dT*dG*dG*dT*dG*eG*eA*eA*eT*eT; antisense) [compound 547726] | 0%
37 | 547727 (eT*eG*eG*e[5mC]*eA*dG*dG*dA*dT*dT*dG*dG*dT*dG*dG*eT*eG*eG*eA*eA; antisense) [compound 547727] | 0%
38 | 547729 (eG*eT*eG*eA*eG*dA*dT*dT*dG*dG*dT*dG*dG*dT*dG*eG*eG*eT*eG*eG; antisense) [compound 547729] | 45%
39 | 547730 (eG*eA*eT*eT*eG*dG*dT*dG*dG*dT*dG*dG*dG*dA*dT*eT*eG*eG*eT*eG; antisense) [compound 547730] | 60%
40 | 547732 (eA*eG*eG*eA*eT*dT*dG*dG*dT*dG*dG*dT*dG*dG*dG*eA*eT*eT*eG*eG; antisense) [compound 547732] | 0%
41 | 547733 (eT*eA*eG*eG*eA*dT*dT*dG*dG*dT*dG*dG*dT*dG*dG*eG*eA*eT*eT*eG; antisense) [compound 547733] | 0%
42 | 547734 (eG*eT*eA*eG*eG*dA*dT*dT*dG*dG*dT*dG*dG*dT*dG*eG*eG*eA*eT*eT; antisense) [compound 547734] | 14%
43 | 547735 (eG*eG*eT*eA*eG*dG*dA*dT*dT*dG*dG*dT*dG*dG*dT*eG*eG*eG*eA*eT; antisense) [compound 547735] | 39%
44 | 547736 (eT*eG*eG*eT*eA*dG*dG*dA*dT*dT*dG*dG*dT*dG*dG*eT*eG*eG*eG*eA; antisense) [compound 547736] | 54%
45 | 547737 (eT*eG*eG*eT*eG*dG*dT*dG*dG*dG*dA*dT*dT*dG*dG*eT*eG*e[5mC]*eT*eG; antisense) [compound 547737] | 59%
46 | 547738 (eT*eT*eG*eG*eT*dG*dG*dT*dG*dG*dG*dA*dT*dT*dG*eG*eT*eG*e[5mC]*eT; antisense) [compound 547738] | 41%
47 | 547739 (eA*eT*eT*eG*eG*dT*dG*dG*dT*dG*dG*dG*dA*dT*dT*eG*eG*eT*eG*e[5mC]; antisense) [compound 547739] | 12%
48 | 547740 (eA*eG*eG*eT*eG*dG*dT*dG*dG*dG*dA*dT*dT*dG*dG*eT*eG*eG*eT*eG; antisense) [compound 547740] | 30%
49 | 547741 (eT*eA*eG*eG*eT*dG*dG*dT*dG*dG*dG*dA*dT*dT*dG*eG*eT*eG*eG*eT; antisense) [compound 547741] | 47%
50 | 547742 (eA*eT*e[5mC]*eG*eG*dT*dG*dG*dT*dG*dG*dG*dA*dT*dT*eG*eG*eT*e[5mC]*eG; antisense) [compound 547742] | 57%
